Measured values published in patent publication US11883436B2, “Method of preparing hematopoietic stem and progenitor cells for transplantation” (THE BOARD OF TRUSTEES OF THE UNIVERSITY OF ILLINOIS, priority 2020, dated 2024).

Tests used:
LSK progenitors = assay: OP9 co-culture B cell differentiation of LSK progenitors treated with Baclofen; assay type: cell-based, mouse
Method: In vitro B Cell Differentiation Assay. LSK progenitors (4,000) from wild-type and Gabbr1^−/− mice were directly sorted onto pre-prepared OP9 stromal cells with 1 mL complete DMEM medium containing 10% FBS, 1 ng/mL IL-7, and 5 ng/mL Flt-3L. Three and six days later, 1 mL complete DMEM medium was added. One week after initial culture, all cells including OP9 cells were mechanically detached and filtered with a […] cell strainer. Cells were passaged onto fresh OP9 stromal cells with complete medium. Medium was changed every three days. At 14 days after initial culture, all cells were detached and stained with CD45.2, CD19, B220 and CD11b antibodies. The numbers of the different hematopoietic cell populations in each well were calculated by multiplying the total cell numbers from each well with the frequencies of each population. To assess the effects of Gabbr1 on myeloid cell differentiation from LSK cells, the DMEM medium containing 10% FBS, 1 ng/ml IL-7, 5 ng/ml Flt-3L, 5 ng/ml IL-6, 6 ng/ml IL-3 was used. Fourteen days after sorted LSK cells were cultured on OP9 cells, numbers of CD11b^+ and Gr-1^+ cells were measured via flow cytometry.
In addition, OP9 co-culture experiments were carried out to differentiate HSPCs in vitro toward B lineages. LSK progenitors (3,000-4,000 cells) were sorted from wild-type or Gabbr1 null mutants. These cells were plated on a stromal OP9 cells and induced to differentiate into B cells by supplementing media (a-MEM 25% HYCLONE™ FBS) with IL-7 (1 ng/mL) and Flt3L (5 ng/mL). […]
To test if OP9 co-cultures would respond to GABBR1 agonist during B cell differentiation, and allow downstream biochemical analysis, the co-cultures were treated with Baclofen. […] Cultures were harvested and analyzed for cell surface marker expression (B220^+ and GABBR1^+) by flow cytometry at day 12.
As part of this self-regulating direct feedback mechanism, it was also determined whether there were any changes in GABBR1 surface expression in B lineages using flow cytometry. […]

CD34+ UCB cells = assay: CD34+ UCB cell xenotransplants into NSG mice after 2 hour ex vivo treatment; engraftment at 16 weeks; assay type: in vivo, human
Method: CD34^+ UCB Cell Xenotransplants into NSG Mice. All NSG studies were carried out in accordance with, and approval of the Institutional Animal Care and Use Committee of Indiana University School of Medicine and the Guide for the Care and Use of Laboratory animals. Female NOD.Cg-Prkdc^scid I12rg^tm1Wj1/Szj (NSG) mice were obtained from the In Vivo Therapeutics Core of the Indiana University Simon Cancer Center. Animals were maintained under pathogen-free conditions and maintained on Irradiated Global 2018 (Uniprim 4,100 ppm; Harlan Laboratories) food pellets with ad libitum access to autoclaved, acidified tap water under a 12-hour light-dark cycle at 22° C. to 24° C. Mice were irradiated 4 hours prior to transplant (3.0 Gy of ^137Cesium γ-ray irradiation in an irradiator (J. L. Shepherd, Glendale, CA) at a dose rate of 88 cGy/min). CD34^+ UCB cells were thawed in 1% human serum albumin in STEMSPAN® media (STEMCELL Technologies) with human SCF 100 ng/ml and allowed to sit for 2 hours. Cells were then counted and plated at 0.5×10^6 cells/mL in STEMSPAN® media with 1% HSA. Cells were plated and treated with the following for 2 hours at 37° C.: 1, 10, or 50 μM (RS)-Baclofen (Tocris); 1, 10, or 50 μM 2-hydroxy-saclofen (Tocris); vehicle control (DMSO). Cells were harvested and immediately washed with PBS by centrifugation at 300×g for 10 minutes. Mice were transplanted with 20,000 cells each in 200 μL PBS (n=7 mice per group). PB and BM were harvested at 16 weeks post-transplant.
Analysis and Multi-Parametric Flow Cytometry Immunostaining of Xenotransplant Mice. For peripheral blood counts, blood was obtained through retro-orbital bleeding and transferred to EDTA-coated tubes. Peripheral blood cell numbers were determined using a Vet Abc Hematological analyzer (Scil Animal Care). For PB, BM, and spleen analysis of the target populations in xenotransplant mice, the cells were collected using a red blood cell lysis assay (eBioscience). The following primary conjugated monoclonal antibodies were used: anti-human CD34 PE (BD Pharmingen), anti-human AC133 APC (Miltenyi Biotec), anti-human CD19 PECy7 (BD Pharmingen), anti-human CD33 PerCP-Cy5.5 (BD Pharmingen), anti-human CD38 FITC (BD Pharmingen), anti-human CD45 APC-fluorescent dye sold under the tradename ALEXA FLUOR® (AF) 750 (Invitrogen), and the fixable amine reactive viability dye, LiveDead (Violet, Invitrogen).
The lysed PB, BM, and spleen cells were incubated with both human and murine Fc blocking reagent (Miltenyi Biotec) for 10 minutes on ice. Briefly, cells were incubated with the titered antibodies listed above for 30 minutes at 4° C., washed twice in PBS with 2% fetal bovine serum, fixed in 1% PFA (Tousimis), and analyzed within 24 hours on a BD Fortessa™ flow cytometer (BD, Franklin Lakes, NJ, USA) equipped with a 405 nm violet laser, 488 nm blue laser, 640 nm red laser, and 561 nm yellow-green laser. Approximately 100,000 events per sample were acquired uncompensated and exported as FCS 3.1 files, and analyzed utilizing FlowJo software, version 9.9.6 (Tree Star, Inc). “Fluorescent minus one” (FMO) gating controls were also used to ensure proper gating of positive events (Estes, et al. (2010) Curr. Prot. Cytometry 9:9.33.331-11; Estes, et al. (2010) Cytometry Part A 77:831-839).
Findings from the mouse model indicated a role for Gabbr1 neuroreceptor in two aspects of hematopoiesis: proliferation of HSPCs and differentiation of B lineage cells. To evaluate functional conservation of Gabbr1 in hematopoiesis, and translational potentials of GABA signaling for HSPCs, CD34^+ UCB cells were exposed for 2 hours in vitro with increasing doses of either baclofen (Bac), a clinically approved GABA agonist (Bowery, et al. (1980) Nature 283(5742):92-94), or 2-hydroxy-saclofen (Sac), a selective antagonist of GABA B receptor (Kerr, et al. (1988) Neurosci. Lett. 92(1):92-96). […]

[1] = system: GAD1/2f/f; CD79a/Mb1-Cre HSPCs (LSK); assay: OP9 co-culture B cell differentiation of GAD1/2-deleted HSPCs with Baclofen in the media; assay type: cell-based, mouse; settings: media supplemented with agonist, 12 days
Description: To genetically block GABA production during B cell differentiation, the B lineage Cre lines CD79a/Mb1-Cre (19) and CD19-Cre were used (Rickert, et al. (1997) Nucl. Acids Res. 25(6):1317-8). These lines were crossed to a GAD1/2-floxed allele (Meng, et al. (2016) Proc. Natl. Acad. Sci. USA 113(13):3645-50) that also carries the Ai14 Lox-Stop-Lox-tdTomato Cre reporter (Madisen, et al. (2010) Nat. Neurosci. 13(1):133-40). At 6-8 weeks of age, BM were harvested and HSPCs (LSK) were sorted from GAD1/2^f/f; CD79a/Mb1-Cre (Cd79a KO) and GAD1/2^f/f-CD19-Cre (Cd19 KO) mice, as well as littermate Cre-negative controls (wild-type). GAD1/2^ff/ excised by Cre recombination will delete the only enzymes that can produce GABA. HSPCs were plated, 3,000-4,000 per well, in OP9 co-culture and were differentiated for 12 days. Cells were harvested from co-cultures for analysis by flow cytometry. The Ai14 Cre reporter was used to confirm that >95% of CD19^+ and/or B220^+ cells were tdTomato^+ as an indication of robust Cre excision in B lineages. Removal of GAD1/2 with CD79a/Mb1-Cre, but not CD19-Cre, led to dramatic reduction of absolute numbers of CD45^+ hematopoietic and B220^+ B lineages. The percentage of B220^+ cells decreased with GAD1/2 deletion by CD79a/Mb1-Cre.

CD34+ UCB progenitors = assay: Human umbilical cord blood (UCB) colony forming assays; assay type: cell-based
Method: Human Umbilical Cord Blood (UCB) Colony Forming Assays. Colony forming assays were carried out with either CD34^+ UCB progenitors treated as above prior to xenotransplant (i.e., input cells), or from xenotransplant recipient BM after 16 weeks (i.e., output cells). Input cells were plated at a density of 1×10^3 cells/dish. Output cells were plated at a density of 2×10^5 cells/dish. Cells were mixed with METHOCULT® M3434 culture medium (STEMCELL Technologies) and plated into each of three 35-mm gridded dishes. Dishes were incubated at 37° C. for 12 days and colonies were enumerated under a bright light microscope. A clonogenic colony contained at least 50 cells or greater. Findings from the mouse model indicated a role for Gabbr1 neuroreceptor in two aspects of hematopoiesis: proliferation of HSPCs and differentiation of B lineage cells. To evaluate functional conservation of Gabbr1 in hematopoiesis, and translational potentials of GABA signaling for HSPCs, CD34^+ UCB cells were exposed for 2 hours in vitro with increasing doses of either baclofen (Bac), a clinically approved GABA agonist (Bowery, et al. (1980) Nature 283(5742):92-94), or 2-hydroxy-saclofen (Sac), a selective antagonist of GABA B receptor (Kerr, et al. (1988) Neurosci. Lett. 92(1):92-96). […]

HSPC = settings: literature comparison; cited from earlier work
[2] = 10 μM vs vehicle control, spleen of transplanted NSG mice

In the case of `NCC(CC(=O)O)c1ccc(Cl)cc1` (racemic) [Baclofen, 4-amino-3-(4-chorophenyl)-butanoic acid], the “B cell production (B220+ cell number)” value (LSK progenitors; 1 μM, day 12) was “reached significance in its stimulation of B cell production”, the “B cell number across dose curve” value (LSK progenitors; 0.5, 1.0, 5.0, 10 μM, day 12) was “trend of B cell number increase, then decrease” and the “percentage of B220+ cells with surface expression of GABBR1+” value (LSK progenitors; 0.5, 1, 5, 10 μM, day 12, flow cytometry) was “decreased”. For the same compound, the “progenitor engraftment CD38+, BM chimerism” value (CD34+ UCB cells; 10 μM vs vehicle control, BM, 16 weeks) was “significant increases”, the “CD19+ B-cell reconstitution in spleen” value (CD34+ UCB cells; [2]) was “two-fold” and the “overall engraftment in spleen” value (CD34+ UCB cells; [2]) was “significant increases in overall engraftment”. The “progenitor-specific CD34+ BM engraftment in NSG mice” value (CD34+ UCB cells; 10 μM, 2 hours ex vivo, 16 weeks post-transplant) was “significant improvement”, the “engraftment of hCD45+ cells in NSG recipients (BM)” value (CD34+ UCB cells; 10 μM, 2 hours ex vivo, 16 weeks post-transplant, vs vehicle control) was “dramatic enhancement over vehicle control” and the “chimerism, fold higher (long-term engraftment)” value (CD34+ UCB cells; UCB CD34+ cells, 2 hour treatment, 10 μM dose, before transplantation) was 2- to 8 fold. For the same compound, the “BM chimerism and progenitor numbers in xenograft mouse model” value (CD34+ UCB cells; human CD34+ UCB HSPCs, up to 16 weeks) was “sustained increases”, the “rescue of B cell differentiation defect due to GAD1/2 deletion” value [1] was “partially rescues the defect” and the “in vitro CFUs of CD34+ UCB cells” value (CD34+ UCB progenitors; input cells, after 2-hour treatment) was “did not produce increased colonies”. The “progenitor colonies (CFU) in BM of NSG mice transplanted with treated CD34+ UCB cells, vs controls” value (CD34+ UCB progenitors; output cells, 16 weeks post-transplantation) was “three-fold”.
With `NCC(O)(CS(=O)(=O)O)c1ccc(Cl)cc1` (stereo not drawn) [2-hydroxy-saclofen, 3-Amino-2-(4-chlorophenyl)-2-hydroxypropyl-sulfonic acid] the “engraftment (CD45+, CD34+) in NSG mice” value (CD34+ UCB cells; 1, 10 or 50 μM, 2 hours ex vivo, 16 weeks post-transplant) was “did not significantly increase engraftment at any of the tested doses”.
In the case of `CCCCC[C@H](O)/C=C/[C@H]1[C@H](O)CC(=O)[C@@H]1C/C=C\CCCC(=O)O` [Prostaglandin E2], the “improvement in long-term engraftment” value (HSPC) is given as 2- to 4 fold.
